Assay [1] addresses T1, ABHD6 (Mus musculus, UniProt Q8R2Y0).
T1 sequence (Q8R2Y0 1-336): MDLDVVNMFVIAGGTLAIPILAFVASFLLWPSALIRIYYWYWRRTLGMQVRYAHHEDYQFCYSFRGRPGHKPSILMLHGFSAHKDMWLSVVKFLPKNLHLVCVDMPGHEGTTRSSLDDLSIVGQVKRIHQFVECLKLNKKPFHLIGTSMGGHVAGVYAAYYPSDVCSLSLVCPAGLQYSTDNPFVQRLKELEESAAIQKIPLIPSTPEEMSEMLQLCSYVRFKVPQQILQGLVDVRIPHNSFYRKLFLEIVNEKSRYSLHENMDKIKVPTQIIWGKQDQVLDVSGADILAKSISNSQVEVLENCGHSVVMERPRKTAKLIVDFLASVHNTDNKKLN
The assay can be described thus: In vitro competitive activity-based protein profiling (Table 2, % inhibition at 1 μM). It counts as biochemical. Conditions: read-out: % Inhibition at 1 μM ABHD6.

For assay [2], the target named is T2, FAAH (Mus musculus, UniProt O08914).
T2 sequence (O08914 1-579): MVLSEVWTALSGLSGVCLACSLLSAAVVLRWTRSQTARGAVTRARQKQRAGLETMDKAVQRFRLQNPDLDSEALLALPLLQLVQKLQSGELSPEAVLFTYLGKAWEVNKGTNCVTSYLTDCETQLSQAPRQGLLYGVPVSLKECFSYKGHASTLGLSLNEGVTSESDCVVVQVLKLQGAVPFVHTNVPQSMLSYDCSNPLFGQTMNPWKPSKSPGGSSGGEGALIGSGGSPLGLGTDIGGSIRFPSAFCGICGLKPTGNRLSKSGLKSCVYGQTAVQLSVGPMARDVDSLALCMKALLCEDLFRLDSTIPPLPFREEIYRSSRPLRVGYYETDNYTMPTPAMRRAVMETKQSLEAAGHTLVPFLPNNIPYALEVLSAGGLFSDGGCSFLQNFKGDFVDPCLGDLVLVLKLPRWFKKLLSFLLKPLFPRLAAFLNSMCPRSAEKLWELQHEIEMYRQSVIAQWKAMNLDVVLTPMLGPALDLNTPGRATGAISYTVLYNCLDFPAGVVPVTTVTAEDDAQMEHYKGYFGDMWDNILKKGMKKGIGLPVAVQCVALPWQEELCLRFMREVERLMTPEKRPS
Described as above. It counts as biochemical. The note with it: read-out: % Inhibition at 1 μM FAAH.

Assay [3] has as its target T3, MAGL (Mus musculus, UniProt O35678).
T3 sequence (O35678 1-303): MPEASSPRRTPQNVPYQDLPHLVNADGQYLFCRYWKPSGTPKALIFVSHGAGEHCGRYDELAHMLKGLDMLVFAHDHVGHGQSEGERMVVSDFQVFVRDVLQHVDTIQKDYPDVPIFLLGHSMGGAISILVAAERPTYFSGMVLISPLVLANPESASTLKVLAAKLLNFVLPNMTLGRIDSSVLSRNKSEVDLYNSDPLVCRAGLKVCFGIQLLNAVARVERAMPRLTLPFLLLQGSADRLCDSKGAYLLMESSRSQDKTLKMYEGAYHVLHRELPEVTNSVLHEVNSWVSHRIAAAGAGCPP
The assay can be described thus: biochemical. Conditions: mouse; in vitro competitive ABPP; read-out: Mouse (IC50 value, nM) MAGL.

For assay [4], the target named is T1, ABHD6. The assay can be described thus: biochemical. Conditions: in vitro competitive ABPP.
In assay [5] the target is T2, FAAH. The assay can be described thus: biochemical. Conditions: in vitro competitive ABPP.
For assay [6], the target named is T3, MAGL. The assay can be described thus: In vitro competitive activity-based protein profiling (Table 2, % inhibition at 1 μM). It counts as biochemical. The note with it: read-out: % Inhibition at 1 μM MAGL. The protocol:
After 30 min, FP—Rh (1.0 μL, 50 μM in DMSO) was added and the mixture was incubated for another 30 min at 37° C. Reactions were quenched with SDS loading buffer (50 μL-4×) and run on SDS-PAGE.
Cell lysates were diluted with mock proteomes for use in competitive ABPP experiments.

A word on the inhibition: it is the share of the control response that was lost under treatment. In general, IC50 refers to the point on the concentration scale where inhibition reaches its midpoint.

In the case of `O=C(OC(C(F)(F)F)C(F)(F)F)N1CC2CN(Cc3cc(CN4CCCCC4)ccc3OC(F)(F)F)CC2C1` (stereo not drawn) [Example 189, 1,1,1,3,3,3-hexafluoropropan-2-yl 5-(5-(piperidin-1-ylmethyl)-2-(trifluoromethoxy)benzyl)hexahydropyrrolo[3,4-c]pyrrole-2(1H)-carboxylate], the inhibition at 1 µM on ABHD6 [1] is below 25%; at FAAH [2], below 25%; on MAGL [6] it was above 75%. For the same compound, the IC50 on MAGL [3] was in the range of 100 to 1000 nM; on ABHD6 [4] it was 1000 to 10000 nM; on FAAH [5], 1000 to 10000 nM.
Consider `O=C(ON1C(=O)CCC1=O)N1CC2CN(Cc3ccc(N4CCOCC4)cc3Cl)CC2C1` (stereo not drawn) [Example 80, 2,5-Dioxopyrrolidin-1-yl 5-(2-chloro-4-morpholinobenzyl)hexahydropyrrolo[3,4-c]pyrrole-2(1H)-carboxylate], for which the inhibition at 1 µM at ABHD6 [1] was below 25%; on FAAH [2], 25 to 75%; on MAGL [6], 25 to 75%. For the same compound, the half-inhibitory concentration (IC50) lay within 100 to 1000 nM on MAGL [3], 1000 to 10000 nM on ABHD6 [4] and 1000 to 10000 nM at FAAH [5].
As to `O=C(ON1C(=O)CCC1=O)N1CC2CN(Cc3cccc(Cl)c3N3CCC(F)CC3)CC2C1` (stereo not drawn) [Example 160, 2,5-dioxopyrrolidin-1-yl 5-[[3-chloro-2-(4-fluoropiperidin-1-yl)phenyl]methyl]-octahydropyrrolo[3,4-c]pyrrole-2-carboxylate], the inhibition at 1 µM on ABHD6 [1] was 25 to 75%; on FAAH [2] it was 25 to 75%; at MAGL [6], above 75%. The IC50 at MAGL [3] was in the range of 100 to 1000 nM; at ABHD6 [4], 1000 to 10000 nM; at FAAH [5] it was 1000 to 10000 nM.
On to `Cc1c(CN2CC3CN(C(=O)ON4C(=O)CCC4=O)CC3C2)cccc1N1CCC(F)(F)CC1` (stereo not drawn) [Example 144, 2,5-dioxopyrrolidin-1-yl 5-[[3-(4,4-difluoropiperidin-1-yl)-2-methylphenyl]methyl]-octahydropyrrolo[3,4-c]pyrrole-2-carboxylate], for which the inhibition at 1 µM at ABHD6 [1] was below 25%; at FAAH [2], above 75%; at MAGL [6], above 75%. For the same compound, the IC50 on MAGL [3] was below 100 nM; at ABHD6 [4] it was 1000 to 10000 nM; at FAAH [5] it was 100 to 1000 nM.
Take `CC(=O)N1CCN(c2cc(F)ccc2CN2CC3CN(C(=O)OC(C(F)(F)F)C(F)(F)F)CC3C2)CC1` (stereo not drawn) [Example 17, 1,1,1,3,3,3-Hexafluoropropan-2-yl 5-[[2-(4-acetylpiperazin-1-yl)-4-fluorophenyl]methyl]-octahydropyrrolo[3,4-c]pyrrole-2-carboxylate]: the inhibition at 1 µM is below 25% on ABHD6 [1], 25 to 75% on FAAH [2] and above 75% at MAGL [6]. Besides, the IC50 on MAGL [3] was in the range of 100 to 1000 nM; at ABHD6 [4], 1000 to 10000 nM; at FAAH [5], 1000 to 10000 nM.
In the case of `CCN1CCN(c2cccc(CN3CC4CN(C(=O)OC(C(F)(F)F)C(F)(F)F)CC4C3)c2C)CC1` (stereo not drawn) [Example 155, 1,1,1,3,3,3-hexafluoropropan-2-yl 5-[[3-(4-ethylpiperazin-1-yl)-2-methylphenyl]methyl]-octahydropyrrolo[3,4-c]pyrrole-2-carboxylate], the results for the inhibition at 1 µM on ABHD6 [1], on FAAH [2] and on MAGL [6] were 25 to 75%, 25 to 75% and above 75%, respectively. The IC50 lay in the range of 100 to 1000 nM on MAGL [3], 1000 to 10000 nM on ABHD6 [4] and 1000 to 10000 nM on FAAH [5].
Turning to `O=C(OC(C(F)(F)F)C(F)(F)F)N1CC2CN(Cc3ccc(Cl)cc3N3CCN4CCC[C@@H]4C3)CC2C1` (stereo partly drawn) [Example 35, 1,1,1,3,3,3-Hexafluoropropan-2-yl 5-(4-chloro-2-((R)-hexahydropyrrolo[1,2-a]pyrazin-2(1H)-yl)benzyl)-hexahydropyrrolo[3,4-c]pyrrole-2(1H)-carboxylate], the inhibition at 1 µM is below 25% on ABHD6 [1], below 25% at FAAH [2] and above 75% at MAGL [6]. The figures for the IC50 on MAGL [3], on ABHD6 [4] and on FAAH [5] were 100 to 1000 nM, 1000 to 10000 nM and above 10000 nM, respectively.
With `O=C(OC(C(F)(F)F)C(F)(F)F)N1CC2CN(Cc3ccc(C(F)F)cc3N3CCCCC3)CC2C1` (stereo not drawn) [Example 204, 1,1,1,3,3,3-hexafluoropropan-2-yl 5-(4-(difluoromethyl)-2-(piperidin-1-yl)benzyl)hexahydropyrrolo[3,4-c]pyrrole-2(1H)-carboxylate], the inhibition at 1 µM at ABHD6 [1] is below 25%; on FAAH [2] it was below 25%; on MAGL [6] it was above 75%. For the same compound, the IC50 was below 100 nM on MAGL [3], 1000 to 10000 nM at ABHD6 [4] and 1000 to 10000 nM at FAAH [5].
As for `O=C(OC(C(F)(F)F)C(F)(F)F)N1CC2CN(Cc3ccc(C(F)(F)F)cc3N3CC4COCC4C3)CC2C1` (stereo not drawn) [Example 210, 1,1,1,3,3,3-hexafluoropropan-2-yl 5-(2-(tetrahydro-1H-furo[3,4-c]pyrrol-5(3H)-yl)-4-(trifluoromethyl)benzyl)hexahydropyrrolo[3,4-c]pyrrole-2(1H)-carboxylate], the figures for the inhibition at 1 µM on ABHD6 [1], on FAAH [2] and at MAGL [6] were below 25%, below 25% and above 75%, respectively. In addition, the 50% inhibitory concentration (IC50) at MAGL [3] was below 100 nM; at ABHD6 [4], 1000 to 10000 nM; at FAAH [5], 1000 to 10000 nM.
Turning to `O=C(OC(C(F)(F)F)C(F)(F)F)N1CC2CN(Cc3cc(CN4CCCC4)cc(OC(F)(F)F)c3)CC2C1` (stereo not drawn) [Example 185, 1,1,1,3,3,3-hexafluoropropan-2-yl 5-(3-(pyrrolidin-1-ylmethyl)-5-(trifluoromethoxy)benzyl)hexahydropyrrolo[3,4-c]pyrrole-2(1H)-carboxylate], the values for the inhibition at 1 µM on ABHD6 [1], at FAAH [2] and at MAGL [6] were below 25%, below 25% and above 75%, respectively. Besides, the values for the IC50 on MAGL [3], at ABHD6 [4] and at FAAH [5] were 100 to 1000 nM, 1000 to 10000 nM and above 10000 nM, respectively.
`Cn1nc(-c2ccccc2)cc1CN1CC2CN(C(=O)OC(C(F)(F)F)C(F)(F)F)CC2C1` (stereo not drawn) [Example 194, 1,1,1,3,3,3-hexafluoropropan-2-yl 5-((1-methyl-3-phenyl-1H-pyrazol-5-yl)methyl)hexahydropyrrolo[3,4-c]pyrrole-2(1H)-carboxylate]: the values for the inhibition at 1 µM on ABHD6 [1], at FAAH [2] and at MAGL [6] were below 25%, 25 to 75% and above 75%, respectively. For the same compound, the values for the IC50 on MAGL [3], at ABHD6 [4] and at FAAH [5] were below 100 nM, 1000 to 10000 nM and 1000 to 10000 nM, respectively.
As to `O=C(OC(C(F)(F)F)C(F)(F)F)N1CC2CN(Cc3ccc(Cl)cc3N3CCC4(CCOCC4)C3)CC2C1` (stereo not drawn) [Example 31, 1,1,1,3,3,3-Hexafluoropropan-2-yl 5-[(4-chloro-2-[8-oxa-2-azaspiro[4.5]decan-2-yl]phenyl)methyl]-octahydropyrrolo[3,4-c]pyrrole-2-carboxylate], the figures for the inhibition at 1 µM at ABHD6 [1], on FAAH [2] and on MAGL [6] were below 25%, below 25% and above 75%, respectively. Further, the figures for the IC50 on MAGL [3], at ABHD6 [4] and at FAAH [5] were below 100 nM, 1000 to 10000 nM and 1000 to 10000 nM, respectively.
On to `CC(=O)N1CCC(c2nn(C(C)C)cc2CN2CC3CN(C(=O)OC(C(F)(F)F)C(F)(F)F)CC3C2)CC1` (stereo not drawn) [Example 55, 1,1,1,3,3,3-Hexafluoropropan-2-yl 5-[[3-(1-acetylpiperidin-4-yl)-1-(propan-2-yl)-1H-pyrazol-4-yl]methyl]-octahydropyrrolo[3,4-c]pyrrole-2-carboxylate], for which the figures for the inhibition at 1 µM on ABHD6 [1], on FAAH [2] and on MAGL [6] were below 25%, below 25% and above 75%, respectively. Besides, the concentration for half-maximal inhibition (IC50) at MAGL [3] was 100 to 1000 nM; at ABHD6 [4], 1000 to 10000 nM; on FAAH [5] it was above 10000 nM.
